Assay results as given in patent US11052092B2, “N-{[2-(piperidin-1-yl)phenyl](phenyl)methyl}-2-(3-oxo-3,4-dihydro-2H-1,4-benzoxazin-7-yl)acetamide derivatives and related compounds as ROR-gamma modulators for treating autoimmune diseases” (Genfit, priority 2017, dated 2021).

What was measured:
multiple sclerosis model = settings: administered by injection; cited from earlier work
psoriasis model = settings: administered by injection; cited from earlier work
[1] = tested on: patients with moderate to severe psoriasis; settings: cited from earlier work
human RORγt = molecular target: T1, human RORγt (Homo sapiens, UniProt P51449); experiment: RORE Luciferase/RORγt transactivation assay; assay type: cell-based; settings: COS-7 cells transfected with human IL-17 promoter luciferase reporter and RORγt plasmid; 20 h with compound; read-out: IC50, RORγt activity inhibition
T1 construct: the full-length cDNA of human RORγt; expressed in transfected cells; host or cells: COS-7 (monkey kidney)
T1 sequence (P51449 1-497 isoform P51449-2): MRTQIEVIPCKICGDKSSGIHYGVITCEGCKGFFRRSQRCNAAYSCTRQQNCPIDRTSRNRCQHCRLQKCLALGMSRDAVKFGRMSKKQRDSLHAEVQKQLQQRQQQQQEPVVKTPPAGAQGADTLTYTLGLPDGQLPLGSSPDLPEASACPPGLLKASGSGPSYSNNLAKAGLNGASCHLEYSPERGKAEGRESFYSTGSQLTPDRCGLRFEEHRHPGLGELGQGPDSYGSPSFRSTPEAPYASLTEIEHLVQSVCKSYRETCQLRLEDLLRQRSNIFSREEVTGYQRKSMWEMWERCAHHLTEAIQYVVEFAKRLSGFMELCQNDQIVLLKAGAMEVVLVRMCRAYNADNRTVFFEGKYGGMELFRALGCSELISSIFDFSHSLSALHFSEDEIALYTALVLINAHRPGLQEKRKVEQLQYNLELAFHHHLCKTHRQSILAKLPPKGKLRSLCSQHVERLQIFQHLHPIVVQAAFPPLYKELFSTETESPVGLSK
In short: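 COS-7 cells were transiently co-transfected with a human IL-17 promoter (RORE/CNS)–luciferase reporter and a RORγt expression plasmid, then seeded at 10000 cells/well in serum-free, phenol red-free DMEM. Compounds were added at 0.3% DMSO final. Luciferase was read with Steady-Glo, and IC50 and Emax were derived.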

[2] = molecular target: T2, RORγt ligand-binding domain (RORγt-LBD) (Homo sapiens, UniProt P51449); experiment: Time-resolved FRET (TR-FRET) RORγt coactivator assay; settings: GST-RORγ-LBD, biotinylated RIP140 peptide, 2 hours at room temperature
T2 construct: 20 nM recombinantly expressed RORγ-LBD fused to GST
T2 sequence (P51449 269-508 limits assumed): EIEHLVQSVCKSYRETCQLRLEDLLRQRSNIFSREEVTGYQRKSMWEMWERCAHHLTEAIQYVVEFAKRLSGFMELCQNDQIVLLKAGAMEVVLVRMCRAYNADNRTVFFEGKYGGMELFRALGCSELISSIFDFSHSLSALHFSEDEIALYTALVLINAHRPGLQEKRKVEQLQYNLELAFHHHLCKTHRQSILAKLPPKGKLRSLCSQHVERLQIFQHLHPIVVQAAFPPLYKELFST
In short: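 GST-tagged RORγt-LBD (20 nM) with 30 nM biotinylated RIP140-derived peptide, streptavidin-terbium and d2 anti-GST in CHAPS buffer (1 mM DTT, 2 mM EDTA, 0.1% BSA), 1% DMSO. Compounds at 0.3 nM–30 μM final, equilibrated 2 h, room temperature, dark. Coactivator displacement lowers the TR-FRET signal; IC50 (μM) and Emax (%) reported.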

[3] = tested on: Murine EL-4 lymphoma cell line overexpressing human RORγt; experiment: IL-17 secretion from EL4 murine lymphoma; assay type: cell-based; settings: Mus musculus; human RORγt-transfected EL4 cells, PMA (10 ng/mL) and ionomycin (1 μM), 24 h; read-out: IC50, IL-17 secretion inhibition
In short: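 EL-4 cells electroporated with hRORγt plasmid, seeded at 150000 cells/well and pretreated with compound for 24 h, then stimulated with PMA (10 ng/mL) plus ionomycin (1 μM final) with compound for a further 24 h at 37 °C. IL-17 in supernatant measured by HTRF or ELISA.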

Structure (SMILES)	IC50 (human RORγt) [µM]	IC50 [2] [µM]	IC50 [3] [µM]	also measured
CC(=O)Nc1nc(C)c(S(=O)(=O)Nc2ccc(C(O)(C(F)(F)F)C(F)(F)F)cc2)s1 [SR1001]	–	–	–	efficacy in multiple sclerosis model (multiple sclerosis model): efficacious
Cc1ccc([C@@H](NC(=O)Cc2ccc3oc([C@@H](O)c4c(C)noc4C)cc3c2)c2ccccc2)c(C)c1 [TMP778]	–	–	–	efficacy in psoriasis model (psoriasis model): efficacious
CCS(=O)(=O)c1ccc(CNC(=O)c2cnc3c(c2)CN(C[C@H]2CC[C@H](C(F)(F)F)CC2)[C@H]3C(C)C)nc1 [VTP-43742]	–	–	–	reduction in the Psoriasis Area Severity Index (PASI) score relative to placebo ([1]; 350 mg dose group): 24%; placebo-adjusted PASI score reduction ([1]; 700 mg dose group): 30%; plasma IL-17 levels ([1]; relative to placebo): reduced
Cc1ccc(C(NC(=O)Cc2ccc3[nH]c(C)nc3c2)c2ccccc2)c(Br)c1 (stereo not shown) [Cpd. 81, N-[(2-bromo-4-methylphenyl)(phenyl)methyl]-2-(2-methyl-1H-1,3-benzodiazol-5-yl)acetamide]	0.01 to 0.1	0.01 to 0.1	0.1 to 1	melting point: 138 °C
Cc1ccc(C(NC(=O)Cc2ccc3c(c2)C(=Cc2cnc(N)s2)C(=O)N3)c2ccc(C)o2)c(N2CCCCC2)c1 (stereo not shown) [Cpd. 44, 2-{3-[(2-amino-1,3-thiazol-5-yl)methylidene]-2-oxo-2,3-dihydro-1H-indol-5-yl}-N-{[4-methyl-2-(piperidin-1-yl)phenyl](5-methylfuran-2-yl)methyl}acetamide]	0.1 to 1	0.1 to 1	1 to 10	–
O=C1COc2cc(CC(=O)NC(c3ccccc3)c3ccccc3N3CCCCC3)ccc2N1 (stereo not shown) [Cpd. 3, 2-(3-oxo-3,4-dihydro-2H-1,4-benzoxazin-7-yl)-N-{phenyl[2-(piperidin-1-yl)phenyl]methyl}acetamide]	1 to 10	0.1 to 1	1 to 10	–
Cc1ccc(C(NC(=O)Cc2ccc3c(ccn3C(=O)C3CCOCC3)c2)c2ccc(C)o2)c(N2CCCCC2)c1 (stereo not shown) [Cpd. 118, N-{[4-methyl-2-(piperidin-1-yl)phenyl](5-methylfuran-2-yl)methyl}-2-[1-(oxane-4-carbonyl)-1H-indol-5-yl]acetamide]	0.01 to 0.1	0.1 to 1	< 0.1	melting point: 96 °C
Cc1ccc(C(NC(=O)C2(c3ccc4c(c3)CS(=O)(=O)N4)CC2)c2ccc(Cl)o2)c(C)c1 (stereo not shown) [Cpd. 87, N-[(5-chlorofuran-2-yl)(2,4-dimethylphenyl)methyl]-1-(2,2-dioxo-1,3-dihydro-2,1-benzothiazol-5-yl)cyclopropane-1-carboxamide]	0.01 to 0.1	< 0.01	< 0.1	–
